Reference: patent US20190358181A1, “METHODS FOR AUTISM SPECTRUM DISORDER PHARMACOTHERAPY” (priority 2017, published 2019)

Assays:
Assay type in all cases: in vivo, human
[1] = Toxicity and safety monitoring, adverse events graded by CTCAE v4.03, SAT-1 trial
Protocol: Immediately before the infusion, height and weight were recorded, vital signs and capillary oxygen saturation (pulse oximetry) measured, physical and neurological examinations were conducted, and urine and blood for safety monitoring, pharmacology, and metabolomics was collected.
(§1) For the test dose, 50 mg of suramin hexasodium (Bayer Pharmaceuticals, Inc.) in 5 mL of saline (experimental arm, 5 patients), or 5 mL of saline only (control arm, 5 patients) were given by slow intravenous (IV) push over 3 minutes, followed by a 10 mL flush of saline. One hour after the test dose, vital signs were repeated and a single infusion of either suramin (20 mg/kg, minus the 50 mg test dose, in 50 mL, up to a maximum of 1 gram) or saline (50 mL IV) was given over 30 minutes, followed by a 10 mL flush of saline.
Suramin pharmacokinetics was assessed by serum isolation at the 4 time points immediately before and after the infusion. […] Unexpected and adverse events were recorded as they occurred and graded in severity according to the National Cancer Institute Common Terminology Criteria for Adverse Events v4.03 (CTCAE) scale. Additional pharmacovigilence monitoring included daily scripted phone calls in the first week, then 4 weekly calls until the exit examinations at 6 weeks.
(§2) Paired, non-parametric analysis was by Wilcoxon signed-rank sum test. Categorical data, such as the presence or absence of adverse events or historical symptoms was analyzed by Fisher's exact test. Two-way ANOVA (treatment×time), with Sidak post hoc correction, was used to analyze the 6-week summaries captured by the ADOS, CGI, and additional blood and urine safety analysis. Cohen's d—calculated as the mean difference of the paired, within-subject scores before and after treatment, divided by the standard deviation of the differences—was used as an estimate of effect size.

males with ASD [2] = assay: Autism Treatment Evaluation Checklist (ATEC), parent questionnaire, SAT-1 trial
Protocol: (§3) Two observational examinations were performed by a clinician at 3 time points: baseline (56±8 days; mean±SEM; before the infusion), 2-days post-infusion, and 6-weeks post-infusion. The two examiner-based metrics were the Autism Diagnostic Observation Schedule, 2nd edition (ADOS-2) with video and audio files recorded on 3 cameras, and the Expressive One Word Picture Vocabulary Testing (EOWPVT). Both of these observational metrics were administered by a trained and certified examiner using approved test materials. Three standardized questionnaires were completed by parents at 3 time points: baseline, 7-days post-infusion, and 6-weeks post-infusion. The three standardized questionnaires completed by parents were the 58-question Aberrant Behavior Checklist (ABC), the 75-item Autism Treatment Evaluation Checklist (ATEC), and the 33-item repetitive behavior questionnaire (RBQ). Parents were asked to complete these three instruments with reference to how their child behaved in the previous 7 days. At the end of the six weeks, we included a 24-question Clinical Global Impression (CGI) questionnaire (FIG. 16). In addition, parents were asked to list the 3 top behaviors or symptoms that they observed to be most changed over the previous 6-weeks. To minimize the misinterpretation of natural day-to-day variations in symptoms, parents were asked to mark a symptom as changed in the 6-week CGI only if it had lasted for at least 1 week.
as §1
(§4) Behavioral and neurological effects of treatment were assessed primarily by the examiner-based ADOS-2 protocol scores and standardized vocabulary testing (Expressive One Word Picture Vocabulary Test, EOWPVT), with secondary evaluation via parent-based assessments (Aberrant Behavior Checklist (ABC) scores, Autism Treatment Evaluation Checklist (ATEC) scores, Clinical Global Impression of Improvement (CGI) scores, and Repetitive Behavior Questionnaire (RBQ) scores). See General Methods for information related to behavioral test administration. Prior to the study, diagnosis of each of the enrolled participants was confirmed by ADOS-2 comparison scores of ≥7, and non-verbal IQ was tested by Leiter-3 examination. Examiner-based outcomes (ADOS and EOWPVT) were assessed at 2-days and 6-weeks after the infusion. Parent-based outcomes (ABC, ATEC, CGI, and RBQ) were assessed at 7-days and 6-weeks after the infusion. To minimize the effects of natural behavioral variability, the parents were instructed to mark a behavior as changed only if it was persistently changed for at least 1 week.
as §2, with “Each child was used as their own control to examine before and after treatment effects from Example 1 in a paired t-test design for the analysis of the ADOS, EOWPVT, ABC, ATEC, RBQ (FIGS. 4-11 show individual analyses), and blood and urine safety data (FIGS. 2 and 3 show individual analyses). Paired,” for “Paired,”

males with ASD [3] = assay: ADOS-2 (Autism Diagnostic Observation Schedule, 2nd edition), SAT-1 trial, single 20 mg/kg IV suramin infusion; settings: for Difference from baseline (mean ± sd) / d (Cohen's d): 45 days after treatment
Protocol: as §3
All children met DSM-5 diagnostic criteria for autism spectrum disorders, and received confirmatory testing by Autism Diagnostic Observation Schedule, 2nd edition (ADOS-2) examination. Inclusion criteria included males, ages 4-17 years, living in the San Diego, Calif. region, with a confirmed diagnosis of ASD.
as §1, §4
Each child was used as their own control to examine before and after treatment effects from Example 1 in a paired t-test design for the analysis of the ADOS, EOWPVT, ABC, ATEC, RBQ (FIGS. 4-11 show individual analyses), and blood and urine safety data (FIGS. 2 and 3 show individual analyses). Paired, non-parametric analysis was by Wilcoxon signed-rank sum test. Categorical data, such as the presence or absence of adverse events or historical symptoms was analyzed by Fisher's exact test. […]

[4] = ATEC Language, 7 days after treatment
[5] = ATEC Language, 45 days after treatment
[6] = ATEC Sociability, 7 days after treatment
[7] = ATEC Total, 7 days after treatment

Cc1ccc(C(=O)Nc2ccc(S(=O)(=O)O)c3cc(S(=O)(=O)O)cc(S(=O)(=O)O)c23)cc1NC(=O)c1cccc(NC(=O)Nc2cccc(C(=O)Nc3cc(C(=O)Nc4ccc(S(=O)(=O)O)c5cc(S(=O)(=O)O)cc(S(=O)(=O)O)c45)ccc3C)c2)c1 [Suramin, suramin]
Adverse or Unanticipated Events, Suramin (N = 5) ([1]; Asymptomatic rash): 5
CTCAE Grade ([1]; Asymptomatic rash): 1
Adverse or Unanticipated Events, Suramin (N = 5) ([1]; Emesis x 1): 1^4
CTCAE Grade ([1]; Emesis x 1): 1
Adverse or Unanticipated Events, Suramin (N = 5) ([1]; Enuresis): 1^9
CTCAE Grade ([1]; Enuresis): 1
Adverse or Unanticipated Events, Suramin (N = 5) ([1]; Headache): 1
CTCAE Grade ([1]; Headache): 1
Adverse or Unanticipated Events, Suramin (N = 5) ([1]; Hyperactivity): 2^6
CTCAE Grade ([1]; Hyperactivity): 1
Adverse or Unanticipated Events, Suramin (N = 5) ([1]; Hypoglycemia): 1
CTCAE Grade ([1]; Hypoglycemia): 2
Adverse or Unanticipated Events, Suramin (N = 5) ([1]; Leukocytosis): 0
Adverse or Unanticipated Events, Suramin (N = 5) ([1]; Peripheral neuropathy): 0
Adverse or Unanticipated Events, Suramin (N = 5) ([1]; Total): 13
Adverse or Unanticipated Events, Suramin (N = 5) ([1]; Total, excluding rash): 8
Adverse or Unanticipated Events, Suramin (N = 5) ([1]; Uncomplicated URI): 2
CTCAE Grade ([1]; Uncomplicated URI): 1
serious toxicities (CTCAE grades 3-5) ([1]; extensive monitoring, single 20 mg/kg IV): no serious toxicities
extent of morbilliform rash ([1]; five children who received suramin): 1%-20%
time of rash peak after the infusion ([1]; in vivo): 1 days
time to spontaneous disappearance of rash ([1]; in vivo): 2 to 4 days
free cortisol, hemoglobin, white blood cell count (WBC), platelets, liver transaminases, creatinine, and urine protein ([1]; suramin vs placebo (FIGS. 2 and 3)): showed no differences
Difference from baseline (mean ± sd) (males with ASD [2]; [4]): −2.2 ± 1.5
d (Cohen's d) (males with ASD [2]; [4]): 1.4
Difference from baseline (mean ± sd) (males with ASD [2]; [5]): −2.0 ± 1.4
d (Cohen's d) (males with ASD [2]; [5]): 1.4
Difference from baseline (mean ± sd) (males with ASD [2]; [6]): −3.6 ± 2.6
d (Cohen's d) (males with ASD [2]; [6]): 1.4
Difference from baseline (mean ± sd) (males with ASD [2]; [7]): −10 ± 7.7
d (Cohen's d) (males with ASD [2]; [7]): 1.3
mean ADOS comparison score (males with ASD [3]; 6-weeks after suramin (8.6±0.4 at baseline)): 7.0±0.3
ADOS-2 comparison scores improved by an average of (mean±SD) (males with ASD [3]; 6-weeks, suramin treatment group, n=5): −1.6±0.55 points
2-day ADOS scores (males with ASD [3]; 2 days after suramin (FIG. 10A)): no change
Difference from baseline (mean ± sd) (males with ASD [3]; ADOS-2 Comparison): −1.6 ± 0.55
d (Cohen's d) (males with ASD [3]; ADOS-2 Comparison): 2.9
Difference from baseline (mean ± sd) (males with ASD [3]; ADOS-2 Raw): −4.6 ± 1.9
d (Cohen's d) (males with ASD [3]; ADOS-2 Raw): 2.4
Difference from baseline (mean ± sd) (males with ASD [3]; ADOS-2 Restr/Rep (restricted or repetitive behaviors)): −1.4 ± 0.89
d (Cohen's d) (males with ASD [3]; ADOS-2 Restr/Rep): 1.6
Difference from baseline (mean ± sd) (males with ASD [3]; ADOS-2 Social): −3.2 ± 1.9
d (Cohen's d) (males with ASD [3]; ADOS-2 Social): 1.7
